Measured values published in patent publication US12077503B2, “Substituted cyclic amides and their use as herbicides” (FMC CORPORATION, priority 2015, dated 2024).

What was measured:
Type in all cases: in vivo
[1] = system: redroot pigweed (Amaranthus retroflexus); assay: Test G Pre-Emergence Protocol; settings: Amaranthus retroflexus, pre-emergence, 312 h, evaluated after 13 days
Summary of the method: (§1)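 Visual injury (0–100) at day 13 after a single pre-emergence spray. Rates: 15.625, 62.5, 250 g/ha in acetone–water 50:50 with 0.5% Tween 20. Growth conditions: 24/16° C, 14 h light, 65% humidity.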

[2] = system: barnyardgrass (Echinochloa crus-galli); assay: Test G Pre-Emergence Protocol; settings: Echinochloa crus-galli, pre-emergence, 312 h, evaluated after 13 days
Summary of the method: as §1

[3] = system: giant foxtail (Setaria faberi); assay: Test G Pre-Emergence Protocol; settings: Setaria faberi, pre-emergence, 312 h, evaluated after 13 days
Summary of the method: as §1

[4] = system: velvetleaf (Abutilon theophrasti); assay: Test G Pre-Emergence Protocol; settings: Abutilon theophrasti, pre-emergence, 312 h, evaluated after 13 days
Summary of the method: as §1

corn (Zea mays) [5] = assay: Test G Pre-Emergence Protocol; settings: Zea mays, pre-emergence, 312 h, evaluated after 13 days
Summary of the method: as §1

[6] = system: ivy-leaved morning glory (Ipomoea hederacea); assay: Test G Pre-Emergence Protocol; settings: Ipomoea, pre-emergence, 312 h, evaluated after 13 days
Summary of the method: as §1

[7] = system: redroot pigweed (Amaranthus retroflexus); assay: Test G Post-Emergence Protocol; settings: Amaranthus retroflexus, post-emergence, 312 h
Summary of the method: (§2)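 Pot-grown seedlings, 8 days old, raised in a glasshouse at 24/16 °C day/night with 14 h light and 65% humidity, were sprayed post-emergence with test compound in acetone/water (50:50) plus 0.5% Tween 20 at 15.625, 62.5 or 250 g/ha. Damage was scored visually 13 days later on a 0–100 scale (100 = total damage).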

[8] = system: barnyardgrass (Echinochloa crus-galli); assay: Test G Post-Emergence Protocol; settings: Echinochloa crus-galli, post-emergence, 312 h
Summary of the method: as §2

[9] = system: giant foxtail (Setaria faberi); assay: Test G Post-Emergence Protocol; settings: Setaria faberi, post-emergence, 312 h
Summary of the method: as §2

[10] = system: velvetleaf (Abutilon theophrasti); assay: Test G Post-Emergence Protocol; settings: Abutilon theophrasti, post-emergence, 312 h
Summary of the method: as §2

corn (Zea mays) [11] = assay: Test G Post-Emergence Protocol; settings: Zea mays, post-emergence, 312 h
Summary of the method: as §2

[12] = system: ivy-leaved morning glory (Ipomoea hederacea); assay: Test G Post-Emergence Protocol; settings: Ipomoea, post-emergence, 312 h
Summary of the method: as §2

CN1C[C@@H](c2ccc(C(F)(F)F)cc2)[C@H](C(=O)Nc2ccccn2)C1=O (racemic) [Compound 1596]
pest or weed control at 15.625 g/ha ([1]; 15.625 g ai/ha, read-out: Pigweed, Redroot damage rating (100=total damage to plant; 0=no damage to plant)): 0%
pest or weed control at 62.5 g/ha ([1]; 62.5 g ai/ha, 100=total damage to plant, 0=no damage to plant, read-out: plant damage rating, Pigweed, Redroot): 20%
pest or weed control at 250 g/ha ([1]; 250 g ai/ha, read-out: Pigweed, Redroot damage rating (100=total damage to plant; 0=no damage to plant)): 60%
pest or weed control at 15.625 g/ha ([2]; 15.625 g ai/ha, read-out: Barnyard grass damage rating (100=total damage to plant; 0=no damage to plant)): 0%
pest or weed control at 62.5 g/ha ([2]; 62.5 g ai/ha, 100=total damage to plant, 0=no damage to plant, read-out: plant damage rating, Barnyardgrass): 0%
pest or weed control at 250 g/ha ([2]; 250 g ai/ha, read-out: Barnyardgrass damage rating (100=total damage to plant; 0=no damage to plant)): 70%
pest or weed control at 15.625 g/ha ([3]; 15.625 g ai/ha, read-out: Foxtail, Giant damage rating (100=total damage to plant; 0=no damage to plant)): 0%
pest or weed control at 62.5 g/ha ([3]; 62.5 g ai/ha, 100=total damage to plant, 0=no damage to plant, read-out: plant damage rating, Foxtail, Giant): 40%
pest or weed control at 250 g/ha ([3]; 250 g ai/ha, read-out: Foxtail, Giant damage rating (100=total damage to plant; 0=no damage to plant)): 80%
pest or weed control at 15.625 g/ha ([4]; 15.625 g ai/ha, read-out: Velvetleaf damage rating (100=total damage to plant; 0=no damage to plant)): 0%
pest or weed control at 62.5 g/ha ([4]; 62.5 g ai/ha, 100=total damage to plant, 0=no damage to plant, read-out: plant damage rating, Velvetleaf): 0%
pest or weed control at 250 g/ha ([4]; 250 g ai/ha, read-out: Velvetleaf damage rating (100=total damage to plant; 0=no damage to plant)): 20%
plant injury at 15.625 g/ha (corn (Zea mays) [5]; 15.625 g ai/ha, read-out: Corn damage rating (100=total damage to plant; 0=no damage to plant)): 0%
plant injury at 62.5 g/ha (corn (Zea mays) [5]; 62.5 g ai/ha, 100=total damage to plant, 0=no damage to plant, read-out: plant damage rating, Corn): 0%
plant injury at 250 g/ha (corn (Zea mays) [5]; 250 g ai/ha, read-out: Corn damage rating (100=total damage to plant; 0=no damage to plant)): 0%
pest or weed control at 15.625 g/ha ([6]; 15.625 g ai/ha, read-out: Morning-glory, Ivy-leaved damage rating (100=total damage to plant; 0=no damage to plant)): 0%
pest or weed control at 62.5 g/ha ([6]; 62.5 g ai/ha, 100=total damage to plant, 0=no damage to plant, read-out: plant damage rating, Morningglory, Ivy-leaved): 10%
pest or weed control at 250 g/ha ([6]; 250 g ai/ha, read-out: Morningglory, Ivy-leaved damage rating (100=total damage to plant; 0=no damage to plant)): 100%
pest or weed control at 15.625 g/ha ([7]; 15.625 g ai/ha, evaluated after 13 days (100=total damage to plant; 0=no damage to plant), read-out: Pigweed, Redroot damage rating): 0%
pest or weed control at 62.5 g/ha ([7]; 62.5 g ai/ha, evaluated after 13 days, read-out: Pigweed, Redroot damage rating (100=total damage to plant; 0=no damage to plant)): 10%
pest or weed control at 250 g/ha ([7]; 250 g ai/ha, evaluated after 13 days, read-out: damage to plant, Pigweed, Redroot (100=total damage to plant; 0=no damage to plant)): 40%
pest or weed control at 15.625 g/ha ([8]; 15.625 g ai/ha, evaluated after 13 days (100=total damage to plant; 0=no damage to plant), read-out: Barnyardgrass damage rating): 0%
pest or weed control at 62.5 g/ha ([8]; 62.5 g ai/ha, evaluated after 13 days, read-out: Barnyardgrass damage rating (100=total damage to plant; 0=no damage to plant)): 30%
pest or weed control at 250 g/ha ([8]; 250 g ai/ha, evaluated after 13 days, read-out: damage to plant, Barnyardgrass (100=total damage to plant; 0=no damage to plant)): 70%
pest or weed control at 15.625 g/ha ([9]; 15.625 g ai/ha, evaluated after 13 days (100=total damage to plant; 0=no damage to plant), read-out: Foxtail, Giant damage rating): 0%
pest or weed control at 62.5 g/ha ([9]; 62.5 g ai/ha, evaluated after 13 days, read-out: Foxtail, Giant damage rating (100=total damage to plant; 0=no damage to plant)): 60%
pest or weed control at 250 g/ha ([9]; 250 g ai/ha, evaluated after 13 days, read-out: damage to plant, Foxtail, Giant (100=total damage to plant; 0=no damage to plant)): 80%
pest or weed control at 15.625 g/ha ([10]; 15.625 g ai/ha, evaluated after 13 days (100=total damage to plant; 0=no damage to plant), read-out: Velvetleaf damage rating): 0%
pest or weed control at 62.5 g/ha ([10]; 62.5 g ai/ha, evaluated after 13 days, read-out: Velvetleaf damage rating (100=total damage to plant; 0=no damage to plant)): 0%
pest or weed control at 250 g/ha ([10]; 250 g ai/ha, evaluated after 13 days, read-out: damage to plant, Velvetleaf (100=total damage to plant; 0=no damage to plant)): 10%
plant injury at 15.625 g/ha (corn (Zea mays) [11]; 15.625 g ai/ha, evaluated after 13 days (100=total damage to plant; 0=no damage to plant), read-out: Corn damage rating): 0%
plant injury at 62.5 g/ha (corn (Zea mays) [11]; 62.5 g ai/ha, evaluated after 13 days, read-out: Corn damage rating (100=total damage to plant; 0=no damage to plant)): 0%
plant injury at 250 g/ha (corn (Zea mays) [11]; 250 g ai/ha, evaluated after 13 days, read-out: damage to plant, Corn (100=total damage to plant; 0=no damage to plant)): 10%
pest or weed control at 15.625 g/ha ([12]; 15.625 g ai/ha, evaluated after 13 days (100=total damage to plant; 0=no damage to plant), read-out: Morningglory, Ivy-leaved damage rating): 0%
pest or weed control at 62.5 g/ha ([12]; 62.5 g ai/ha, evaluated after 13 days, read-out: Morningglory, Ivy-leaved damage rating (100=total damage to plant; 0=no damage to plant)): 10%
pest or weed control at 250 g/ha ([12]; 250 g ai/ha, evaluated after 13 days, read-out: damage to plant, Morningglory, Ivy-leaved (100=total damage to plant; 0=no damage to plant)): 20%
